Measurements taken from US6114335A, “Benzoylguanidine derivatives, process for their preparation their use in the preparation of medicines” (Boehringer Ingelheim KG, priority 1996, dated 2000).

Molecular target: T1, Na^+ /H^+ Exchanger (Homo sapiens, UniProt P19634)
T1 construct: Human Intestinal Cancer Cells (HT-29); endogenous in cells; host or cells: HT-29
Assay: Inhibition of the Na^+ /H^+ Exchanger in Human Intestinal Cancer Cells (HT-29)
Type: cell-based
Conditions: HT-29 cells; BCECF fluorescence, cytoplasmic pH; 4 minutes at 37° C., pH 7.0
Experimental: Inhibition of the Na^+ /H^+ Exchanger in Human Intestinal Cancer Cells (HT-29):
HT-29 cells were incubated in growth medium at 37° C., 5% CO2. After 3-5 days the growth medium was removed, the cells were washed and charged with 7.5 μM BCECF-AM (pH-sensitive fluorescent dye) at 37° C. without any CO2. After 30 minutes the cells were washed and acidified with the following medium: 70 mM choline chloride, 20 mM NH4 Cl, […], 1.8 mM CaC2, 5 mM glucose and 15 mM HEPES, pH 7.5.
After 6 minutes incubation at 37° C. without CO2, the cells were washed and incubated for 5 minutes with washing medium: 120 mM choline chloride, 5 mM KCl, 1 mM MgCl2, 1.8 mM CaCl2, 5 mM glucose and 15 mM MOPS, pH 7.0. The washing medium was removed and control medium was added with or without the test compound: 120 mM NaCl, 5 mM KCl, 1 mM MgCl2, 1.8 mM CaCl2, 5 mM glucose, 15 mM MOPS, pH 7.0.
The cells were incubated for 4 minutes at 37° C. without CO2 and measured by fluorimetry (CytoFluor 2350). The fluorescence of the dye BCECF was measured at the excitation wavelengths of 485 nm (pH sensitive) and 440 nm (non pH-sensitive) and at the emission wavelength of 530 nm. The cytoplasmic pH was calculated from the ratio of fluorescences at 485 and 440 nm. The fluorescence ratio was calibrated by measuring the fluorescence signal after equilibration of external and internal pH with nigericin.

T1 sequence (P19634 whole entry): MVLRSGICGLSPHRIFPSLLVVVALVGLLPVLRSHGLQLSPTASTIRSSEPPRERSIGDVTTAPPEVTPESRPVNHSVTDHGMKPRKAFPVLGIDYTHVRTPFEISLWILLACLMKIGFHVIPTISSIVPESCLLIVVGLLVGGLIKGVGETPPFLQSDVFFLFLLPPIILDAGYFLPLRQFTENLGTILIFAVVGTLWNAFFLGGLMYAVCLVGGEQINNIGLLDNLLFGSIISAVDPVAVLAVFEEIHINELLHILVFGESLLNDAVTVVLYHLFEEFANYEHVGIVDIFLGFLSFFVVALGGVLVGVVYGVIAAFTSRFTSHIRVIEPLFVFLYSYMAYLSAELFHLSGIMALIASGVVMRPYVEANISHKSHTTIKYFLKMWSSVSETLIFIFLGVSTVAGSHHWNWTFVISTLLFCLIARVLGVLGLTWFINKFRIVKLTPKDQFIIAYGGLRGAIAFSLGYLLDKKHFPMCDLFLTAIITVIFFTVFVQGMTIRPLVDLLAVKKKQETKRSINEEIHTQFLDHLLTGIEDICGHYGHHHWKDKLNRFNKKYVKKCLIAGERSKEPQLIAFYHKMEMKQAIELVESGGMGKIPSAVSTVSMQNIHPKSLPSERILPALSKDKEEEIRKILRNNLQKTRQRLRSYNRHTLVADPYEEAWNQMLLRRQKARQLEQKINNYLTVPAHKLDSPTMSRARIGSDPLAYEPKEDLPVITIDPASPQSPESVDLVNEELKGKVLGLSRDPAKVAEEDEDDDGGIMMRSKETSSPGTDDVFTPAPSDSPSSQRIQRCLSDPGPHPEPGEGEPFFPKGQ

Row | Compound | IC50
1 | CS(=O)(=O)c1cc(C(=O)N=C(N)N)ccc1N1CCN(C(=O)c2ccco2)CC1 [Example 3] | 29 nM
2 | CN(C)CCN1CCN(c2ccc(C(=O)N=C(N)N)cc2S(C)(=O)=O)CC1 [Example 1] | 500 nM
3 | CS(=O)(=O)c1cc(C(=O)N=C(N)N)ccc1N1CCN(C(=O)c2cccs2)CC1 [Example 4] | 31 nM
